From US20110144353A1, “5-HYDROXY-4-AMINOMETHYL-1-C[…] (CYCLOHEPTYL)--3-ALKO[…] DERIVATIVES, PHARMA[…] SALTS THEREOF AND A METHOD FOR THE PRODUCTION THEREOF” (OBSCHESTVO S ORGANICHENNOY OTVETSTVENNOSTJU <<BINATEKH>>, priority 2008, published 2011)
Converted amounts (≈) assume the structure as drawn.

Tests used:
[1] = test system: influenza A/Aichi/2/69 (H3N2) virus; test: Murine influenza pneumonia model; type: in vivo, mice; conditions: for Mean Life Span / Mortality / Survival rate: mice infected with 10 LD50; for Mortality reduction: versus virus control
Description: Determination of the efficacy of the compounds in the murine influenza pneumonia model.
The experiments were carried out on 60 white mice weighing 12-15 g. The animals were infected intranasally under light ether anesthesia with the influenza A/Aichi/2/69 (H3N2) virus (10 LD50). The compounds to be tested were administered per os in a dose of 60 or 15 mg/kg/day. The treatment was carried out according to the following scheme: 24 hours and 1 hour before infection, and then 2 times a day (at 8 o'clock in the morning and 8 o'clock in the evening) for 5 days. The chemotherapeutic activity of Arbidol and compound A in the murine influenza pneumonia model was assessed according to two criteria: the index of protection against fatal viral infection and the increase in mean life span of the treated animals as compared with the control group. The mean life span of the mice was calculated according to the following formula: Σf(d−1)/n, where f is the number of mice dying on day d (the surviving mice were also included in f; d in this case=16); n is the number of mice in the group.

[2] = test system: Influenza A/New Caledonia/20/99 (H1N1) Virus; test: microbe, parasite or virus in culture; type: cell-based; conditions: for MIC50: Influenza A virus, H1N1, MDCK cells, concentration decreasing OD by 50%, solvent alcohol

| SMILES | Efficacy in animal experiments ([1]; 15 mg/kg/day) | Mean Life Span ([1]; 15 mg/kg/day per os) | Mortality ([1]; 15 mg/kg/day per os) | Survival rate ([1]; 15 mg/kg/day per os) | Mortality reduction ([1]; 15 mg/kg/day per os) | Activity in animal experiments compared with Arbidol ([1]; summary of Table 2) | Activity at 10 μg/mL [2] | MIC50 [2] | Activity in in vitro experiments compared with Arbidol ([2]; summary of Table 1) | Mean Life Span ([1]; 60 mg/kg/day per os) | Mortality ([1]; 60 mg/kg/day per os) | Survival rate ([1]; 60 mg/kg/day per os) | Mortality reduction ([1]; 60 mg/kg/day per os) |
| --- | --- | --- | --- | --- | --- | --- | --- | --- | --- | --- | --- | --- | --- |
| CCOC(=O)c1c(C)n(C2CCCCC2)c2ccc(O)c(CN(C)C)c12 [Compound A, 5-hydroxy-4-dimethylaminomethyl-2-methyl-1-cyclohexyl-3-ethoxycarbonyl indole] | equal to the efficacy of Arbidol at a dose 4 times higher | 11.5 days | 40% | 5/8 | 50% | significantly more active than Arbidol | 96.5% | 5.4 µg/mL (≈ 15.1 µM) | somewhat more active than Arbidol |  |  |  |  |
| CCOC(=O)c1c(CSc2ccccc2)n(C)c2cc(Br)c(O)c(CN(C)C)c12 [Arbidol, 1-methyl-2-phenylthiomethyl-3-carbethoxy-4-dimethylaminomethyl-5-oxy-6-bromindol] |  | 7.3 days | 70% | 3/10 | 20% |  | 89.5% | 6 µg/mL (≈ 12.6 µM) |  | 10.8 days | 40% | 6/10 | 50% |
